Here are results for one substance from patent publication US20230405084A1, “USE OF PHOSPHATIDYLSERINE IN PREPARATION OF DRUG FOR TREATING INFLAMMATORY BOWEL DISEASE” (JIANGSU TARGET BIOMEDICAL RESEARCH INSTITUTE CO., LTD., priority 2020, published 2023).

Experiment [1] has as its target T1, Annexin A5-EGFP (wild-type Annexin A5 fused to EGFP) (Homo sapiens, UniProt P08758).
T1 construct: E. coli BL21(DE3), pET-28a/kanamycin vector
T1 sequence (P08758 1-320): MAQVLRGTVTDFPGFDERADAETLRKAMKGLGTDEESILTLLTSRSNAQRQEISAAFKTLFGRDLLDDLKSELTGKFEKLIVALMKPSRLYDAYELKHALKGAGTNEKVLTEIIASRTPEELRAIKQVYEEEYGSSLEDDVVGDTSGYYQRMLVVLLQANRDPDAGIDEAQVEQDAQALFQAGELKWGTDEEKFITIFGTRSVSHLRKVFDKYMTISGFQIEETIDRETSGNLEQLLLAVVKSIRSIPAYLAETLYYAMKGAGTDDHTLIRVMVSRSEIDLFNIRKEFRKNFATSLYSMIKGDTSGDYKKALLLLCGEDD
The experiment can be described thus: MST analysis of protein binding ability to PS (Annexin A5-EGFP). The note with it: fitted binding curve (Fnorm), in the presence of Ca^2+, protein fixed, gradient dilution of PS, 5 min at room temperature. The protocol: (§1) 3.2.9 MST Analysis of Protein Binding Ability to PS
(§2) MST is based on the phenomenon of thermophoresis of biomolecules in capillaries, resulting in changes in the properties of biomolecules, which are manifested in changes in the fluorescence distribution of the reaction system, and the fluorescence changes reflect the affinity of biomolecular interactions.
(§3) The MST experiment was conducted as follows.
(§4) (1) Non-fluorescent ligand preparation: 20 μL of the highest concentration unmarked PS molecules was prepared. 16 PCR tubes were labeled. 10 μL of buffer was added to each of 15 PCR tubes. 10 μL from PCR tube #1 was transferred to PCR tube #2 and mixed thoroughly. 10 μL from PCR tube #2 was transferred to PCR tube #3 and mixed thoroughly. Repeat this step in all sample tubes. Finally, 10 μL from PCR tube #16 was taken out and discard.
(§5) (2) Fluorescent ligand preparation: The fluorescent ligand was diluted to 2 times the concentration to be tested, and 10 μL was added respectively to PCR tubes 1-16 in sequence using a clean pipette tip, starting from the low concentration PCR tube to the highest concentration PCR tube.
(§6) (3) Incubation: The reaction solutions of the above tubes were mixed thoroughly and incubated for 5 min at room temperature away from light. […]

For experiment [2], the target named is T2, Annexin A5m-EGFP (Annexin A5 variant Annexin A5m, R25A/K29S/R63S/D68A/E72Q/D144N/E228A/D303N, fused to EGFP) (Homo sapiens, UniProt P08758, D144N/D303N/D68A/E228A/E72Q/K29S/R25A/R63S).
T2 construct: pET-28a, E. coli BL21(DE3)
T2 sequence (P08758 1-320 R25A/K29S/R63S/D68A/E72Q/D144N/E228A/D303N): T1 sequence (P08758 1-320) with R25A, K29S, R63S, D68A, E72Q, D144N, E228A, D303N
The experiment can be described thus: MST analysis of protein binding ability to PS (Annexin A5m-EGFP). The note with it: in the presence of Ca^2+, failed to be fitted into a binding curve, protein fixed, gradient dilution of PS, 5 min at room temperature. How it is done:
as §1, §2, §3, §4, §5, §6

By Kd is commonly meant a measure of binding affinity in units of concentration.

Changes are numbered by the printed parent chain.

Consider phosphatidylserine [PS], for which the Kd in experiment [1] is 13.8 µM. The Kd value entry in experiment [2] is reported as “no Kd value”.
